Measurements published in PMC9401487 (Clinical Cancer Research, 2021).
Read-outs that look alike come from different tables or passages of the source.

Legend:
[1] = test system: patients; conditions: cited from earlier work
[2] = test system: LoVo colorectal cancer cell line; test: LoVo growth inhibition, ceralasertib alone or with carboplatin; format: cell-based, human; conditions: Homo sapiens, LoVo, read-out: GI50 (50% growth inhibition)

- GI50 [2]: 90 nM
SMILES: CNCc1ccc(-c2cc(-c3nc(-c4ccc(S(=O)(=O)C(C)C)cc4)cnc3N)on2)cc1 [berzosertib]
- Tolerability ([1]; 90 mg/m^2 + carboplatin AUC5): tolerated
- Patients with grade 3/4 neutropenia ([1]; 240 mg/m^2 + carboplatin AUC5, 3 patients): 3 patients
- Tolerability ([1]; 240 mg/m^2 days 1 and 8 every 21 days + carboplatin AUC5 day 1): not tolerated
